Source: ChEMBL document CHEMBL1136988, “1-amino-4-benzylphthalazines as orally bioavailable smoothened antagonists with antitumor activity” (J Med Chem, 2009)

Experiments:
[1] = Tmax in nude mouse plasma at 5 mg/kg, po after 24 hrs; type: ADME, organism-based; design: dose 5 mg/kg, route oral
[2] = Antitumor activity against mouse Ptch+/- p53-/- medulloblastoma cells xenografted Harlan nu/nu mouse at 10 mg/kg, po bid administered after 7 days tumor implantation measured after 12 days relative to control; type: functional, Medulloblastoma cell
Medulloblastoma cell [3] = test: Inhibition of Gli mRNA expression in mouse medulloblastoma cells at 5 mg/kg, po by RT-PCR; type: functional, organism-based; design: dose 5 mg/kg; conditions: TDE = time-dependent effect
Mus musculus [4] = test: Hepatic blood flow in nude mouse at 1 mg/kg, iv; type: ADME, organism-based, Liver; design: dose 1 mg/kg, route intravenous; conditions: in vivo
[5] = Oral bioavailability in nude mouse plasma at 5 mg/kg after 24 hrs; type: ADME, organism-based
[6] = Antitumor activity against mouse Ptch+/- p53-/- medulloblastoma cells xenografted Harlan nu/nu mouse assessed as tumor regression at 40 mg/kg, po bid administered after 7 days tumor implantation measured after 12 days; type: functional, Medulloblastoma cell
Mus musculus [7] = test: Toxicity in mouse Ptch+/- p53-/- medulloblastoma cells xenografted Harlan nu/nu mouse at 5 to 40 mg/kg, po qd administered after 7 days tumor implantation measured after 12 days; type: organism-based; design: dose 5-40 mg/kg, route oral; conditions: in vivo, 288 h
Mus musculus [8] = test: Toxicity in mouse Ptch+/- p53-/- medulloblastoma cells xenografted Harlan nu/nu mouse at 5 to 40 mg/kg, po bid administered after 7 days tumor implantation measured after 12 days; type: organism-based; design: dose 5-40 mg/kg, route oral; conditions: in vivo, 288 h
[9] = Antitumor activity against mouse Ptch+/- p53-/- medulloblastoma cells xenografted Harlan nu/nu mouse at 20 mg/kg, po qd administered after 7 days tumor implantation measured after 12 days relative to control; type: functional, Medulloblastoma cell
[10] = Antitumor activity against mouse Ptch+/- p53-/- medulloblastoma cells xenografted Harlan nu/nu mouse at 5 mg/kg, po qd administered after 7 days tumor implantation measured after 12 days relative to control; type: functional, Medulloblastoma cell
[11] = Antitumor activity against mouse Ptch+/- p53-/- medulloblastoma cells xenografted Harlan nu/nu mouse at 40 mg/kg, po qd administered after 7 days tumor implantation measured after 12 days relative to control; type: functional, Medulloblastoma cell
Protein smoothened [12] = biological target: T1, Protein smoothened (Mus musculus, UniProt P56726); test: Displacement of [3H]3-chloro-4,7-difluoro-N-(4-methoxy-3-(pyridin-4-yl)benzyl)-N-(4-(methylamino)cyclohexyl)benzo[b]thiophene-2-carboxamide from mouse Smoothened receptor expressed in CHO-K1 cells by membrane filter binding assay; type: cell-based
T1 sequence (P56726 whole entry): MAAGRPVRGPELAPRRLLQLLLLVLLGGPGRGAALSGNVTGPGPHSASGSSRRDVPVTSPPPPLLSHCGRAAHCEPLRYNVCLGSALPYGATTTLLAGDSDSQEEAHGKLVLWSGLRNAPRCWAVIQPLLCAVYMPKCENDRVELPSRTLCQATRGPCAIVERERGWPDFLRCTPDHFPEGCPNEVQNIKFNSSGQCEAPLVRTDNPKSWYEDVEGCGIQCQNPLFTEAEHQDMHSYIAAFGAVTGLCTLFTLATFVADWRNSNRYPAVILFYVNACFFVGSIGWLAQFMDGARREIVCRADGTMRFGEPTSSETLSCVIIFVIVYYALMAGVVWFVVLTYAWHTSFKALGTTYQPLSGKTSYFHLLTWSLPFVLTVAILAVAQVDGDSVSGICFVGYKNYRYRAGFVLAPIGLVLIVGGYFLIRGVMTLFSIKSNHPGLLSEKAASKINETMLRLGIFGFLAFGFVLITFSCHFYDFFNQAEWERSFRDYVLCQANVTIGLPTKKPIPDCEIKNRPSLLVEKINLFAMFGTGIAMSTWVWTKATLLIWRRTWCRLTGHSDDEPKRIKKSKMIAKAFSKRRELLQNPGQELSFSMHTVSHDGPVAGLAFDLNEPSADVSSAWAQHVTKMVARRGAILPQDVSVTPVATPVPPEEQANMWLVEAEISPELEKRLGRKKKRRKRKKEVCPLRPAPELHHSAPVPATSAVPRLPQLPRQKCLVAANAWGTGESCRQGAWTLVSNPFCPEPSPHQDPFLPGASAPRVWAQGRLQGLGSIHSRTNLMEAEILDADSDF

[13] = Antitumor activity against mouse Ptch+/- p53-/- medulloblastoma cells xenografted Harlan nu/nu mouse assessed as tumor regression at 20 mg/kg, po bid administered after 7 days tumor implantation measured after 12 days; type: functional, Medulloblastoma cell
[14] = Antitumor activity against mouse Ptch+/- p53-/- medulloblastoma cells xenografted Harlan nu/nu mouse at 10 mg/kg, po qd administered after 7 days tumor implantation measured after 12 days relative to control; type: functional, Medulloblastoma cell
[15] = AUC (0 to infinity) in nude mouse brain at 5 mg/kg, po after 24 hrs; type: ADME, organism-based; design: dose 5 mg/kg, route oral, time infinity
Medulloblastoma cell [16] = test: Antitumor activity against mouse Ptch+/- p53-/- medulloblastoma cells xenografted po dosed Harlan nu/nu mouse assessed as tumor regression administered after 7 days tumor implantation measured after 12 days; type: functional, organism-based
[17] = AUC (0 to infinity) in nude mouse plasma at 5 mg/kg, po after 24 hrs; type: ADME, organism-based; design: time infinity, dose 5 mg/kg, route oral
[18] = Cmax in nude mouse brain at 5 mg/kg, po after 24 hrs; type: ADME, organism-based; design: dose 5 mg/kg, route oral
[19] = Half life in nude mouse plasma at 1 mg/kg, iv after 24 hrs; type: ADME, organism-based; design: dose 1 mg/kg, route intravenous
Protein smoothened [20] = biological target: T1, Protein smoothened; type: cell-based, TM3
Description: Inhibition of Smoothened receptor in mouse TM3 cells transfected with pTA-8xGli-Luc reporter gene assessed as inhibition of 25 nM 3-chloro-4,7-difluoro-N-(4-methoxy-3-(pyridin-4-yl)benzyl)-N-(4-(methylamino)cyclohexyl)benzo[b]thiophene-2-carboxamide-induced Hedgehog pathway activation by Gli shift assay

[21] = Clearance in nude mouse plasma at 1 mg/kg, iv after 24 hrs; type: ADME, organism-based; design: dose 1 mg/kg, route intravenous
Mus musculus [22] = test: Total body water content in nude mouse at 1 mg/kg, iv; type: ADME, organism-based; design: dose 1 mg/kg, route intravenous; conditions: in vivo
Medulloblastoma cell [23] = test: Inhibition of Gli mRNA expression in mouse medulloblastoma cells at 40 mg/kg, po by RT-PCR; type: functional, organism-based; design: dose 40 mg/kg; conditions: TDE = time-dependent effect
[24] = Cmax in nude mouse plasma at 5 mg/kg, po after 24 hrs; type: ADME, organism-based; design: dose 5 mg/kg, route oral
[25] = Ratio of Cmax in brain to Cmax in plasma of nude mouse at 5 mg/kg, po after 24 hrs; type: ADME, organism-based; design: dose 5 mg/kg, route oral; conditions: read-out: Ratio_Cmax_brain/plasma
Medulloblastoma cell [26] = test: Inhibition of Gli mRNA expression in mouse medulloblastoma cells after 1 to 24 hrs by RT-PCR; type: functional
[27] = Antitumor activity against mouse Ptch+/- p53-/- medulloblastoma cells xenografted Harlan nu/nu mouse at 5 mg/kg, po bid administered after 7 days tumor implantation measured after 12 days relative to control; type: functional, Medulloblastoma cell
[28] = Tmax in nude mouse brain at 5 mg/kg, po after 24 hrs; type: ADME, organism-based; design: dose 5 mg/kg, route oral
Mus musculus [29] = test: Toxicity in mouse Ptch+/- p53-/- medulloblastoma cells xenografted Harlan nu/nu mouse assessed as change in body weight at 5 to 40 mg/kg, po qd administered after 7 days tumor implantation measured after 12 days; type: organism-based; design: dose 5-40 mg/kg, route oral; conditions: in vivo, 288 h
Protein smoothened [30] = biological target: Protein smoothened (Homo sapiens, UniProt Q99835); test: Displacement of [3H]3-chloro-4,7-difluoro-N-(4-methoxy-3-(pyridin-4-yl)benzyl)-N-(4-(methylamino)cyclohexyl)benzo[b]thiophene-2-carboxamide from human Smoothened receptor expressed in CHO-K1 cells by membrane filter binding assay; type: cell-based
Sequence of Protein smoothened (Homo sapiens, UniProt Q99835) (Q99835 whole entry): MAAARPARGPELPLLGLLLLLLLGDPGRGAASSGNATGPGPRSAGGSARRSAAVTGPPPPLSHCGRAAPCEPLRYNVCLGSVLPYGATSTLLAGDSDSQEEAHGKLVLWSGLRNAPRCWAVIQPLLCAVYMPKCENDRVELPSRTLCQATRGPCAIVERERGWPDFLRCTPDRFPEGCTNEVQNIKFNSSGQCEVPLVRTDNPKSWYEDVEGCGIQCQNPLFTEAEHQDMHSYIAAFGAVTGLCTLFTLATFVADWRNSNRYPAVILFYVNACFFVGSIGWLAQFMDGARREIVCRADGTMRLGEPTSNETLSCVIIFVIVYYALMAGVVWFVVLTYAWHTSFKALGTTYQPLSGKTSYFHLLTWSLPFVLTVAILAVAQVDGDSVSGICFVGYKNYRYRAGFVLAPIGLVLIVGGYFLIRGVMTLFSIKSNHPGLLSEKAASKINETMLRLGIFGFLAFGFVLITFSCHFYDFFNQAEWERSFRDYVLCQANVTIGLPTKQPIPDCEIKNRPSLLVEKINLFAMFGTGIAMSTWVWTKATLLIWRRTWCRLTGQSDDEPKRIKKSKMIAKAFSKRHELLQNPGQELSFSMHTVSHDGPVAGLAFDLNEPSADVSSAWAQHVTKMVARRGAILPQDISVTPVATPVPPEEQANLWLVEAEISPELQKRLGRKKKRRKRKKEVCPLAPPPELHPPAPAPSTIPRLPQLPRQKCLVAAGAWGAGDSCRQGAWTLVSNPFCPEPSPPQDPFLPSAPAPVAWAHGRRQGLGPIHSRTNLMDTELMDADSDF

[31] = Volume of distribution at steady state in nude mouse plasma at 1 mg/kg, iv after 24 hrs; type: ADME, organism-based; design: dose 1 mg/kg, route intravenous; conditions: read-out: Vdss
Mus musculus [32] = test: Toxicity in mouse Ptch+/- p53-/- medulloblastoma cells xenografted Harlan nu/nu mouse assessed as change in body weight at 5 to 40 mg/kg, po bid administered after 7 days tumor implantation measured after 12 days; type: organism-based; design: dose 5-40 mg/kg, route oral; conditions: in vivo, 288 h
Protein smoothened [33] = biological target: T1, Protein smoothened; test: Inhibition of Smoothened receptor in mouse TM3 cells transfected with pTA-8xGli-Luc reporter gene assessed as inhibition of 1 nM 3-chloro-4,7-difluoro-N-(4-methoxy-3-(pyridin-4-yl)benzyl)-N-(4-(methylamino)cyclohexyl)benzo[b]thiophene-2-carboxamide-induced Hedgehog pathway activation by Gli shift assay; type: cell-based
[34] = Ratio of AUC (0 to infinity) in brain to AUC (0 to infinity) in plasma of nude mouse at 5 mg/kg, po after 24 hrs; type: ADME, organism-based; design: dose 5 mg/kg, route oral; conditions: read-out: Ratio AUC
[35] = AUC (0 to infinity) in nude mouse plasma at 1 mg/kg, iv after 24 hrs; type: ADME, organism-based; design: time infinity, dose 1 mg/kg, route intravenous

CC(C)(O)c1ccc(N2CCN(c3nnc(Cc4ccccc4)c4ccccc34)CC2)nc1
Tmax [1]: 15 min
T/C [2]: 40%
Activity (Medulloblastoma cell [3]): tde
QH (Mus musculus [4]): 90 mL/min/kg
bioavailability [5]: 73%
T/C [6]: 71%
Activity (Mus musculus [7]): Non-toxic
Activity (Mus musculus [8]): Non-toxic
T/C [9]: 45%
T/C [10]: 80%
T/C [11]: 19%
IC50 (Protein smoothened [12]): 5 nM
T/C [13]: 15%
T/C [14]: 77%
AUC(0-inf) [15]: 8.82 µM·h
Activity (Medulloblastoma cell [16]): Dose-dependent effect
AUC(0-inf) [17]: 26.5 µM·h
Cmax [18]: 2.39 µM
half-life [19]: 31.8 min
IC50 (Protein smoothened [20]): 35 nM
clearance [21]: 5.24 mL/min/kg
Activity (Mus musculus [22]): 0.7 L/kg
Activity (Medulloblastoma cell [23]): tde
Cmax [24]: 15.7 µM
Kp at 24 h [25]: 0.15
Activity (Medulloblastoma cell [26]): Dose-dependent effect
T/C [27]: 69%
Tmax [28]: 15 min
Activity (Mus musculus [29]): Non-toxic
IC50 (Protein smoothened [30]): 8 nM
Vd [31]: 0.2 L/kg
Activity (Mus musculus [32]): Non-toxic
IC50 (Protein smoothened [33]): 2.7 nM
Kp at 24 h [34]: 0.33
AUC(0-inf) [35]: 7.23 µM·h
